Holding throughout (format): biochemical
One experiment has as its target MMP-13 catalytic domain (Homo sapiens, UniProt P45452). Nature of the experiment: Thiopeptolide substrate hydrolysis inhibition assay, MMP-13 catalytic domain. The settings on record: MMP-13 catalytic domain; read-out: MMP-13CD IC50. An excerpt:
The methods described below for the inhibition of MMP-13 may also be adapted and used to determine the ability of the compounds of Formula I to inhibit other matrix metalloproteases such as MMP-1, MMP-2, MMP-3, MMP-7, MMP-8, MMP-9, MMP-12, MMP-14, MMP-17, and the like.
Thiopeptolide substrates show virtually no decomposition or hydrolysis at or below neutral pH in the absence of a matrix metalloproteinase enzyme. A typical thiopeptolide substrate commonly utilized for assays is Ac-Pro-Leu-Gly-thioester-Leu-Leu-Gly-OEt. A 100 μL assay mixture will contain 50 mM of N-2-hydroxyethylpiperazine-N′-2-ethanesulfonic acid buffer (“HEPES,” pH 7.0), 10 mM CaCl2, 100 μM thiopeptolide substrate, and 1 mM 5,5′-dithio-bis-(2-nitro-benzoic acid) (DTNB). […] Assays are carried out with and without matrix metalloproteinase inhibitor compounds, and the amount of hydrolysis is compared for a determination of inhibitory activity of the test compounds.

A further experiment deals with T1, MMP-1 full-length (Homo sapiens, UniProt P03956).
T1 construct: have also been assayed with MMP-1 full-length
T1 sequence (P03956 100-469): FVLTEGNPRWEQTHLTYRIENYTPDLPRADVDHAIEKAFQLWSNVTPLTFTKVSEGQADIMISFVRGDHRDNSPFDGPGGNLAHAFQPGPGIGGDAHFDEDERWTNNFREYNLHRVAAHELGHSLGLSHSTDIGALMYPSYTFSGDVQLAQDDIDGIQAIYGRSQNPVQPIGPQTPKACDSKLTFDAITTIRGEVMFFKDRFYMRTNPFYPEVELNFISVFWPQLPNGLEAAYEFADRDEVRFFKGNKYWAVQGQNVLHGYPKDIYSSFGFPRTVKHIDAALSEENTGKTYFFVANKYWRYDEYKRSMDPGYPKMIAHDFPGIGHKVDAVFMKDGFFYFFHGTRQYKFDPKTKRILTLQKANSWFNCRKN
Nature of the experiment: Thiopeptolide substrate hydrolysis inhibition assay, MMP-1 full-length. The settings on record: full-length enzyme; read-out: MMP-1FL IC50. The text has this: (§1) The assay methods of Biological Examples 1-4 measure the amount by which a test compound reduces the hydrolysis of a thiopeptolide substrate catalyzed by a matrix metalloproteinase enzyme or catalytic domain thereof. It has been shown previously by Ye Qi-Zhuang, Hupe D., and Johnson L. (Current Medicinal Chemistry, 1996;3:407-418) that inhibitor activity against a catalytic domain of an MMP is predictive of the inhibitor activity against the respective full-length MMP enzyme. The methods described below for the inhibition of MMP-13 may also be adapted and used to determine the ability of the compounds of Formula I to inhibit other matrix metalloproteases such as MMP-1, MMP-2, MMP-3, MMP-7, MMP-8, MMP-9, MMP-12, MMP-14, MMP-17, and the like.
(§2) Thiopeptolide substrates show virtually no decomposition or hydrolysis at or below neutral pH in the absence of a matrix metalloproteinase enzyme. A typical thiopeptolide substrate commonly utilized for assays is Ac-Pro-Leu-Gly-thioester-Leu-Leu-Gly-OEt. A 100 μL assay mixture will contain 50 mM of N-2-hydroxyethylpiperazine-N′-2-ethanesulfonic acid buffer (“HEPES,” pH 7.0), 10 mM CaCl2, 100 μM thiopeptolide substrate, and 1 mM 5,5′-dithio-bis-(2-nitro-benzoic acid) (DTNB). […] The change in absorbance at 405 nm is monitored on a Thermo Max microplate reader (molecular Devices, Menlo Park, Calif.) at room temperature (22° C.). The calculation of the amount of hydrolysis of the thiopeptolide substrate is based on E412=13600 M^−1 cm^−1 for the DTNB-derived product 3-carboxy-4-nitrothiophenoxide. Assays are carried out with and without matrix metalloproteinase inhibitor compounds, and the amount of hydrolysis is compared for a determination of inhibitory activity of the test compounds.
(§3) Test compounds were evaluated at various concentrations in order to determine their respective IC50 values, the micromolar concentration of compound required to cause a 50% inhibition of catalytic activity of the respective enzyme.
(§4) Some representative compounds of Formula I have been evaluated for their ability to inhibit MMP-13, MMP-1FL, MMP-3CD, MMP-7FL, MMP-8FL, MMP-9FL, MMP-12CD, MMP-14CD, and/or MMP-17CD, wherein FL means full-length enzyme and CD means a catalytic domain of the full-length enzyme. Test compounds can be evaluated at various concentrations in order to determine their respective IC50 values, the micromolar concentration of compound required to cause a 50% inhibition of the hydrolytic activity of the respective enzyme.
(§5) Certain compounds of Formula I have also been assayed with MMP-1 full-length, MMP-3 catalytic domain, MMP-7 full-length, MMP-8 full-length, MMP-9 full-length, MMP-12 catalytic domain, MMP-14 catalytic domain, and MMP-17 catalytic domain. […] In Biological Table 2, the compound example numbers for the Compound Examples are indicated in the column labelled “Ex. No.”

The target in another experiment is T2, MMP-3 catalytic domain (Homo sapiens, UniProt P08254).
T2 construct: MMP-1 full-length, MMP-3 catalytic domain, MMP-7 full-length
Nature of the experiment: Thiopeptolide substrate hydrolysis inhibition assay, MMP-3 catalytic domain. The settings on record: MES buffer pH 6.0, read-out: MMP-3CD IC50.
Description: as §1, §2, §3
It should be appreciated that the assay buffer used with MMP-3CD was 50 mM N-morpholinoethane sulfonate (“MES”) at pH 6.0 rather than the HEPES buffer at pH 7.0 described above.
as §4, §5

For the next experiment, the target named is T3, MMP-8 full-length (Homo sapiens, UniProt P22894).
T3 construct: MMP-7 full-length, MMP-8 full-length, MMP-9 full-length
Nature of the experiment: Thiopeptolide substrate hydrolysis inhibition assay, MMP-8 full-length. The settings on record: full-length enzyme; read-out: MMP-8FL IC50.
Description: as §1, §2, §3, §4, §5

In a further experiment the target is T4, MMP-9 full-length (Homo sapiens, UniProt P14780).
T4 construct: MMP-8 full-length, MMP-9 full-length, MMP-12 catalytic domain
Nature of the experiment: Thiopeptolide substrate hydrolysis inhibition assay, MMP-9 full-length. The settings on record: full-length enzyme; read-out: MMP-9FL IC50.
Description: as §1, §2, §3, §4, §5

Another experiment has as its target T5, MMP-14 catalytic domain (Homo sapiens, UniProt P50281).
T5 construct: MMP-14 catalytic domain, and MMP-17 catalytic domain
Nature of the experiment: Thiopeptolide substrate hydrolysis inhibition assay, MMP-14 catalytic domain. The settings on record: read-out: MMP-14CD IC50.
Description: as §1, §2, §3, §4, §5

In another experiment the target is T6, MMP-17 catalytic domain (Homo sapiens, UniProt Q9ULZ9).
T6 construct: MMP-14 catalytic domain, and MMP-17 catalytic domain
T6 sequence (Q9ULZ9 126-295 limits assumed): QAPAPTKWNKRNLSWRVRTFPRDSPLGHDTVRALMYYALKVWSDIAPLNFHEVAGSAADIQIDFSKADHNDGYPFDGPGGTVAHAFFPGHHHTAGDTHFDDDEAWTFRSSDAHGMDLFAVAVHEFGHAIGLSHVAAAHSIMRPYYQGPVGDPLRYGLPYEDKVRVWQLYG
Nature of the experiment: Thiopeptolide substrate hydrolysis inhibition assay, MMP-17 catalytic domain. The settings on record: read-out: MMP-17 CD IC50.
Description: as §1, §2, §3, §4, §5

T2 sequence (P08254 100-272 limits assumed): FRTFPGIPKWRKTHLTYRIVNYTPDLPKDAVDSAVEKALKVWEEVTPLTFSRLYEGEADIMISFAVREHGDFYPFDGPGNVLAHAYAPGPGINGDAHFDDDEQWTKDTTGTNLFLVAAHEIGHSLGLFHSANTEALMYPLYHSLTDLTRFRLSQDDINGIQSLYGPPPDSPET
T3 sequence (P22894 101-467): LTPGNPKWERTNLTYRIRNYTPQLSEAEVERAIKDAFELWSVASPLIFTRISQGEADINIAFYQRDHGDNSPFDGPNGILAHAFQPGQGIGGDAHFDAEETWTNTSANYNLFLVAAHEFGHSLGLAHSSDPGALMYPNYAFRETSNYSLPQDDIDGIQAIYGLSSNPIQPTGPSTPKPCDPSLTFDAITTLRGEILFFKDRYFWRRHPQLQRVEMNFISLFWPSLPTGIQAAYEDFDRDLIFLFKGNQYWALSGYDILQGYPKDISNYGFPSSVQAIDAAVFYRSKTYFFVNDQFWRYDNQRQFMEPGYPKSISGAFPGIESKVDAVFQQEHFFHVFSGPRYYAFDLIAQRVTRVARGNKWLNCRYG
T4 sequence (P14780 94-707): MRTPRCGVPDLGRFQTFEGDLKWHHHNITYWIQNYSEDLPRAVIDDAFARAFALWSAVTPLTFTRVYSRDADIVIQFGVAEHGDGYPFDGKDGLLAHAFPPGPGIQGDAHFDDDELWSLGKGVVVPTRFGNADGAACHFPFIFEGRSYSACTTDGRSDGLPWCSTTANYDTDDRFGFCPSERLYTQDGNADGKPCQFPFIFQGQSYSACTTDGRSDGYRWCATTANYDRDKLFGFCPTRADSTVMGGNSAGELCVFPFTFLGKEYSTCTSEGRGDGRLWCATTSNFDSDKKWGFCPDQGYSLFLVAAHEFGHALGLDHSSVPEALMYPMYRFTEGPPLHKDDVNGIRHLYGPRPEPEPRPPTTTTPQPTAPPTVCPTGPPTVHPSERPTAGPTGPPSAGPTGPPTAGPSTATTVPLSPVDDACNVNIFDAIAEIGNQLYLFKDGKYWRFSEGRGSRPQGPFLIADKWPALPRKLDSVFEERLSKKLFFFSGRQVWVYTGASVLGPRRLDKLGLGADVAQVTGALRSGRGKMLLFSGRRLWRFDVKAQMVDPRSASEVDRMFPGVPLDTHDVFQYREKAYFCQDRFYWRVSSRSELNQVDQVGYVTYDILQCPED

In the case of `COc1ccc(CNC(=O)c2cc3c(=O)n(Cc4ccc(C(=O)O)cc4)cnc3cn2)cc1` [Compound Example 1, 4-[6-(4-methoxy-benzylcarbamoyl)-4-oxo-4H-pyrido[3,4-d]pyrimidin-3-ylmethyl]-benzoic acid], the IC50 at MMP-13 catalytic domain is 0.0077 µM; at MMP-1 full-length, > 100 µM; on MMP-3 catalytic domain, 26 µM; at MMP-8 full-length it was > 100 µM; at MMP-9 full-length, > 100 µM; on MMP-14 catalytic domain, > 100 µM. Further, the IC50 at MMP-17 catalytic domain is > 100 µM.

The term IC50 denotes the midpoint of a concentration-inhibition curve.

Values taken from patent US20050085447A1, “Pyrido[3,4-d]pyrimidine derivatives as matrix metalloproteinase-13 inhibitors” (Warner-Lambert Company LLC, priority 2003, published 2005).
